According to US20240041042A1, “1-(PYRIDYL)-5-AZINYLPYRAZOLE DERIVATIVES, AND THEIR USE FOR CONTROL OF UNDESIRED PLANT GROWTH” (Bayer Aktiengesellschaft, priority 2020, published 2024):
Where two headings read alike, the source gives them in different places.

Experiments:
Format in all cases: in vivo
Viola tricolor (VIOTR) [1] = assay: Post-emergence herbicidal action against VIOTR
Procedure: (§1) Seeds of monocotyledonous and dicotyledonous weeds and crop plants are placed in sandy loam in plastic or organic planting pots, covered with soil and cultivated in a greenhouse under controlled growth conditions. 2 to 3 weeks after sowing, the test plants are treated at the one-leaf stage. The compounds of the invention, formulated in the form of wettable powders (WP) or as emulsion concentrates (EC), are then sprayed onto the green parts of the plants as aqueous suspension or emulsion with addition of 0.5% additive at a water application rate of 600 l/ha (converted). After the test plants have been kept in the greenhouse under optimum growth conditions for about 3 weeks, the activity of the preparations is rated visually in comparison to untreated controls. For example, 100% activity=the plants have died, 0% activity=like control plants.
(§2) Tables B1 to B13 below show the effects of selected compounds of the general formula (I) according to Table 1 on various harmful plants and at an application rate corresponding to 320 g/ha or lower, which were obtained by the experimental procedure mentioned above. The appendices “a”, “b” and “c” give differentiation by dosage used with otherwise the same harmful plants tested.

[2] = tested on: Polygonum convolvulus (POLCO); assay: Pre-emergence herbicidal action against POLCO
Excerpt: (§3) Seeds of monocotyledonous and dicotyledonous weed plants and crop plants are placed in plastic or organic planting pots and covered with soil. The compounds of the invention, formulated in the form of wettable powders (WP) or as emulsion concentrates (EC), are then applied to the surface of the covering soil as aqueous suspension or emulsion with addition of 0.5% additive at a water application rate equivalent to 600 l/ha. After the treatment, the pots are placed in a greenhouse and kept under good growth conditions for the trial plants. After about 3 weeks, the effect of the preparations is scored visually in comparison with untreated controls as percentages. For example, 100% activity=the plants have died, 0% activity=like control plants.
(§4) Tables A1 to A13 below show the effects of selected compounds of the general formula (I) on various harmful plants and at an application rate corresponding to 320 g/ha or lower, which were obtained by the experimental procedure mentioned above. The appendices “a”, “b” and “c” give differentiation by dosage used with otherwise the same harmful plants tested.

Viola tricolor (VIOTR) [3] = assay: Pre-emergence herbicidal action against VIOTR
Excerpt: as §3, §4

Avena fatua (AVEFA) [4] = assay: Post-emergence herbicidal action against AVEFA; conditions: visual rating about 3 weeks after treatment
Procedure: as §1, §2

[5] = tested on: Pharbitis purpurea (PHBPU); assay: Post-emergence herbicidal action against PHBPU
Procedure: as §1, §2

Setaria viridis (SETVI) [6] = assay: Pre-emergence herbicidal action against SETVI
Excerpt: as §3, §4

[7] = tested on: Alopecurus myosuroides (ALOMY); assay: Pre-emergence herbicidal action against ALOMY; conditions: scored visually after about 3 weeks, 100% = plants have died
Excerpt: as §3, §4

Lolium rigidum (LOLRI) [8] = assay: Post-emergence herbicidal action against LOLRI
Procedure: as §1, §2

[9] = tested on: Echinochloa crus-galli (ECHCG); assay: Post-emergence herbicidal action against ECHCG
Procedure: as §1, §2

[10] = tested on: Verconica persica (VERPE); assay: Post-emergence herbicidal action against VERPE
Procedure: as §1, §2

[11] = tested on: Amaranthus retroflexus (AMARE); assay: Pre-emergence herbicidal action against AMARE; conditions: visual scoring after about 3 weeks vs untreated controls
Excerpt: as §3, §4

Avena fatua (AVEFA) [12] = assay: Pre-emergence herbicidal action against AVEFA; conditions: visual scoring after about 3 weeks vs untreated controls
Excerpt: as §3, §4

[13] = tested on: Pharbitis purpurea (PHBPU); assay: Pre-emergence herbicidal action against PHBPU; conditions: dosage 320 g/ha
Excerpt: as §3, §4

Zea mays (ZEAMX) = conditions: for Post-emergence action against ZEAMX in % (crop plant compatibility): 20 g/ha, effect in comparison to untreated controls; for Post-emergence action against ZEAMX in %: crop plant compatibility, 80 g/ha, effect vs untreated controls
Procedure: as §1
(§5) The observed effects on selected crop plants are reported here in comparison to the untreated controls (values in %). The appendices “a”, “b” and “c” give differentiation by dosage used with otherwise the same crop plants tested.

Oryza sativa (ORYSA) = conditions: crop plant compatibility
Procedure: as §1, §5

[14] = tested on: Matricaria inodora (MATIN); assay: Pre-emergence herbicidal action against MATIN
Excerpt: as §3, §4

Lolium rigidum (LOLRI) [15] = assay: Pre-emergence herbicidal action against LOLRI
Excerpt: as §3, §4

[16] = tested on: Verconica persica (VERPE); assay: Pre-emergence herbicidal action against VERPE
Excerpt: as §3, §4

[17] = tested on: Alopecurus myosuroides (ALOMY); assay: Post-emergence herbicidal action against ALOMY; conditions: visual rating about 3 weeks after treatment vs untreated controls (100% = plants have died, 0% = like control plants)
Procedure: as §1, §2

[18] = tested on: Echinochloa crus-galli (ECHCG); assay: Pre-emergence herbicidal action against ECHCG
Excerpt: as §3, §4

[19] = tested on: Amaranthus retroflexus (AMARE); assay: Post-emergence herbicidal action against AMARE; conditions: 80 g/ha, visual rating about 3 weeks after treatment vs untreated controls (100% = plants have died, 0% = like control plants)
Procedure: as §1, §2

Setaria viridis (SETVI) [20] = assay: Post-emergence herbicidal action against SETVI
Procedure: as §1, §2

[21] = tested on: Polygonum convolvulus (POLCO); assay: Post-emergence herbicidal action against POLCO; conditions: dosage 320 g/ha
Procedure: as §1, §2

[22] = tested on: Abutilon theophrasti (ABUTH); assay: Post-emergence herbicidal action against ABUTH; conditions: 320 g/ha, visual rating about 3 weeks after treatment vs untreated controls (100% = plants have died, 0% = like control plants)
Procedure: as §1, §2

[23] = 20 g/ha, effect vs untreated controls
[24] = 80 g/ha, effect in comparison to untreated controls

Row | SMILES | Pre-emergence action against POLCO in % ([2]; dosage 320 g/ha) | Pre-emergence action against VIOTR in % (Viola tricolor (VIOTR) [3]; 320 g/ha, Viola tricolor) | Pre-emergence action against VIOTR in % (Viola tricolor (VIOTR) [3]; dosage 80 g/ha) | Post-emergence action against AVEFA in % (Avena fatua (AVEFA) [4]; 80 g/ha) | Pre-emergence action against SETVI in % (Setaria viridis (SETVI) [6]; dosage 80 g/ha) | Pre-emergence action against SETVI in % (Setaria viridis (SETVI) [6]; dosage 320 g/ha) | Pre-emergence action against ALOMY ([7]; 80 g/ha) | Pre-emergence action against ALOMY ([7]; 320 g/ha) | Post-emergence action against ECHCG in % ([9]; dosage 80 g/ha) | Pre-emergence action against AMARE in % ([11]; 80 g/ha) | Pre-emergence action against AMARE in % ([11]; 320 g/ha) | Pre-emergence action against AVEFA in % (Avena fatua (AVEFA) [12]; 320 g/ha) | Pre-emergence action against PHBPU in % [13] | Post-emergence action against ZEAMX in % (crop plant compatibility) (Zea mays (ZEAMX)) | Pre-emergence action against MATIN in % ([14]; dosage 320 g/ha) | Pre-emergence action against LOLRI in % (Lolium rigidum (LOLRI) [15]; dosage 80 g/ha) | Pre-emergence action against LOLRI in % (Lolium rigidum (LOLRI) [15]; dosage 320 g/ha) | Pre-emergence action against VERPE in % ([16]; dosage 320 g/ha) | Post-emergence action against ALOMY in % ([17]; 80 g/ha) | Pre-emergence action against ECHCG in % ([18]; dosage 320 g/ha) | also measured
1 | CCOC(=O)[C@@H](C)Oc1nn(-c2ncccc2F)c(-c2ccc(F)nc2)c1Cl [Example I-32] | 90% | 100% | 100% | 90% | 100% | 100% | 90% | 100% | 80% | 90% | 100% | 100% | 80% | 20% | 90% | 90% | 100% | 100% | 90% | 100% | Post-emergence action against VIOTR in % (Viola tricolor (VIOTR) [1]; 80 g/ha): 80%; Pre-emergence action against POLCO in % ([2]; dosage 80 g/ha): 90%; Post-emergence action against PHBPU in % ([5]; dosage 80 g/ha): 80%; Post-emergence action against LOLRI in % (Lolium rigidum (LOLRI) [8]; dosage 80 g/ha): 90%; Post-emergence action against VERPE in % ([10]; dosage 80 g/ha): 80%; Pre-emergence action against AVEFA in % (Avena fatua (AVEFA) [12]; 80 g/ha): 90%; Post-emergence action against ORYSA in % (Oryza sativa (ORYSA); [23]): 0%; Post-emergence action against ORYSA in % (Oryza sativa (ORYSA); [24]): 0%; Pre-emergence action against VERPE in % ([16]; dosage 80 g/ha): 80%
2 | CCOC(=O)COc1nn(-c2ncccc2F)c(-c2ccc(F)nc2)c1C1CC1 [Example I-40] | 80% | 100% | 90% | 80% | 100% | 100% | 100% | 100% | 90% | 80% | 100% | 100% | 80% | 0% | – | 90% | 100% | 100% | 100% | 100% | Post-emergence action against AMARE in % [19]: 80%; Post-emergence action against PHBPU in % ([5]; dosage 80 g/ha): 80%; Post-emergence action against SETVI in % (Setaria viridis (SETVI) [20]; dosage 80 g/ha): 80%; Post-emergence action against LOLRI in % (Lolium rigidum (LOLRI) [8]; dosage 80 g/ha): 90%; Post-emergence action against VERPE in % ([10]; dosage 80 g/ha): 80%; Post-emergence action against ZEAMX in % (Zea mays (ZEAMX)): 20%; Pre-emergence action against ECHCG in % ([18]; dosage 80 g/ha): 90%
3 | C[C@@H](Oc1nn(-c2nc(F)ccc2F)c(-c2ccc(F)nc2)c1Cl)C(=O)O [Example I-311] | 90% | 100% | 90% | – | – | 100% | 80% | 90% | 80% | 80% | 90% | 90% | – | – | 90% | 90% | 90% | 90% | 80% | 100% | Post-emergence action against POLCO in % [21]: 80%; Post-emergence action against VIOTR in % (Viola tricolor (VIOTR) [1]; 80 g/ha): 80%; Post-emergence action against VIOTR in % (Viola tricolor (VIOTR) [1]; 320 g/ha): 80%; Post-emergence action against ABUTH in % [22]: 80%; Pre-emergence action against POLCO in % ([2]; dosage 80 g/ha): 80%; Post-emergence action against AVEFA in % (Avena fatua (AVEFA) [4]; 320 g/ha): 80%; Post-emergence action against PHBPU in % ([5]; dosage 320 g/ha): 90%; Post-emergence action against SETVI in % (Setaria viridis (SETVI) [20]; dosage 320 g/ha): 80%; Post-emergence action against LOLRI in % (Lolium rigidum (LOLRI) [8]; dosage 320 g/ha): 80%; Post-emergence action against ECHCG in % ([9]; dosage 320 g/ha): 90%; Post-emergence action against VERPE in % ([10]; 320 g/ha, VERPE): 90%; Post-emergence action against ZEAMX in % (Zea mays (ZEAMX)): 10%; Post-emergence action against ORYSA in % (Oryza sativa (ORYSA); [24]): 20%; Pre-emergence action against MATIN in % ([14]; dosage 80 g/ha): 80%; Pre-emergence action against VERPE in % ([16]; dosage 80 g/ha): 80%; Post-emergence action against ALOMY in % ([17]; 320 g/ha): 90%
4 | O=C(O)COc1nn(-c2ncccc2F)c(-c2ccc(F)nc2)c1C1CC1 [Example I-43] | 80% | 100% | 100% | 90% | 100% | 100% | 100% | 100% | 90% | 80% | 90% | 100% | 80% | 10% | 80% | 90% | 100% | 90% | 90% | 100% | Post-emergence action against AMARE in % [19]: 80%; Post-emergence action against SETVI in % (Setaria viridis (SETVI) [20]; dosage 80 g/ha): 90%; Post-emergence action against ZEAMX in % (Zea mays (ZEAMX)): 10%; Post-emergence action against ORYSA in % (Oryza sativa (ORYSA); [23]): 10%
